Source: US20210269451A1, “PYRIDINYL HETEROCYCLYL COMPOUNDS FOR THE TREATMENT OF AUTOIMMUNE DISEASE” (Hoffmann-La Roche Inc., priority 2018, published 2021)

Biological target: T1, hERG channel (Homo sapiens, UniProt Q12809)
T1 construct: expressed in transfected cells; host or cells: CHO (Chinese hamster ovary), CHOhERG
Assay: hERG channel inhibition assay (patch-clamp, CHOhERG cells);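 on hERG IC20/TLR7 IC50: ratio above 30 indicates an adequate safety window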;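 on hERG IC20/TLR8 IC50: ratio above 30 indicates an adequate safety window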
Format: cell-based
Details: for IC50 / IC20: CHOhERG cells, whole-cell patch-clamp; for IC20: human, CHO cells stably expressing hERG (CHOhERG); for hERG IC20/TLR7 IC50 / hERG IC20/TLR8 IC50 / hERG IC20/TLR9 IC50: safety ratio
Protocol: hERG channel inhibition assay:
The hERG K^+ channels were cloned in humans and stably expressed in a CHO (Chinese hamster ovary) cell line. CHOhERG cells were used for patch-clamp (voltage-clamp, whole-cell) experiments. Cells were stimulated by a voltage pattern to activate hERG channels and conduct IKhERG currents (rapid delayed outward rectifier potassium current of the hERG channel). After the cells were stabilized for a few minutes, the amplitude and kinetics of IKhERG were recorded at a stimulation frequency of 0.1 Hz (6 bpm). Thereafter, the test compound was added to the preparation at increasing concentrations. For each concentration, an attempt was made to reach a steady-state effect, usually, this was achieved within 3-10 min at which time the next highest concentration was applied. The amplitude and kinetics of IKhERG are recorded in each concentration of the drug which were compared to the control values (taken as 100%). (references: Redfern W S, Carlsson L, Davis A S, Lynch W G, MacKenzie I, Palethorpe S, Siegl P K, Strang I, Sullivan A T, Wallis R, Camm A J, Hammond T G. 2003; Relationships between preclinical cardiac electrophysiology, clinical QT interval prolongation and torsade de pointes for a broad range of drugs: evidence for a provisional safety margin in drug development. Cardiovasc. Res. 58:32-45, Sanguinetti M C, Tristani-Firouzi M. 2006; hERG potassium channels and cardiac arrhythmia. Nature 440:463-469, Webster R, Leishman D, Walker D. 2002; Towards a drug concentration effect relationship for QT prolongation and torsades de pointes. Curr. Opin. Drug Discov. Devel. 5:116-26).

T1 sequence (Q12809 whole entry): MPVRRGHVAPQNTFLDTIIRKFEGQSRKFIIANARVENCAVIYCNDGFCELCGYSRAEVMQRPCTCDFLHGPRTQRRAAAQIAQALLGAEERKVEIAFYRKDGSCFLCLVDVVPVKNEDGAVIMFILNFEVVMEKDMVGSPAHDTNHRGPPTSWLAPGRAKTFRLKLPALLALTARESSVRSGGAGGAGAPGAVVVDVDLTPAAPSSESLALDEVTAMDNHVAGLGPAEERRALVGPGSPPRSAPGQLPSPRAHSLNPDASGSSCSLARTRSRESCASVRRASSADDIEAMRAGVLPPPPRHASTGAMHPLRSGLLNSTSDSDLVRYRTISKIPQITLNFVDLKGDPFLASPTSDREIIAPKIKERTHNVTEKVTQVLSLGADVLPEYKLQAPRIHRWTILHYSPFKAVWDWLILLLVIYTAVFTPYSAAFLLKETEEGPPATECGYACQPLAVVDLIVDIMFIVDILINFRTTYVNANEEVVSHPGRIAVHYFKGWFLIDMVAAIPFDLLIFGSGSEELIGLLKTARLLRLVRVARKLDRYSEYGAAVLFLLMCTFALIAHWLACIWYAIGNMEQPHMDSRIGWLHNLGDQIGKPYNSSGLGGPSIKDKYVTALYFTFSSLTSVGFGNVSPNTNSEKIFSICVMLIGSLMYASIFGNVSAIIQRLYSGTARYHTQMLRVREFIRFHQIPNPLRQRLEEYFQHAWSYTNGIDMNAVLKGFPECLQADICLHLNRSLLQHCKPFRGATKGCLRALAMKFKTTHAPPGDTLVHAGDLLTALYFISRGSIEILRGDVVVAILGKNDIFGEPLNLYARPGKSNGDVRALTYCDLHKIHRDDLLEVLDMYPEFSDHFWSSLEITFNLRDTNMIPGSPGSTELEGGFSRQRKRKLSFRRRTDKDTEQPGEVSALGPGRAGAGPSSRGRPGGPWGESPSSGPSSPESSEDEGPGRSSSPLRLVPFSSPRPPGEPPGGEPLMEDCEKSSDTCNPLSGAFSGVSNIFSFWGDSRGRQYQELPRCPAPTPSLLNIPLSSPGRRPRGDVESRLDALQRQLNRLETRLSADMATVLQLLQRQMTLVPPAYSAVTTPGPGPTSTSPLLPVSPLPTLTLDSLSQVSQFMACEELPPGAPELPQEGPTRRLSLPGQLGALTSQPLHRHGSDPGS

| Structure (SMILES) | IC50 | IC20 | hERG IC20/TLR7 IC50 | hERG IC20/TLR8 IC50 | hERG IC20/TLR9 IC50 |
| --- | --- | --- | --- | --- | --- |
| Cc1cc(N2CC3(CN(C[C@H]4CN(c5ccc(C#N)c6ncccc56)C[C@@H](C)O4)C3)C2)cc(CO)n1 [Example 1, 5-[(2S,6R)-2-[[2-[2-(hydroxymethyl)-6-methyl-4-pyridyl]-2,6-diazaspiro[3.3]heptan-6-yl]methyl]-6-methyl-morpholin-4-yl]quinoline-8-carbonitrile] | > 20 µM | > 10 µM | >357.1 | >123.5 | >294.1 |
| Cc1cc(NC2CCN(C[C@H]3CN(c4ccc(C#N)c5ncccc45)C[C@@H](C)O3)CC2)cc(CO)n1 [Example 5] | > 20 µM | 7.18 µM | 121.8 | 217.7 | 224.5 |
| Cc1cc(NC2CCN(C[C@H]3CN(c4ccc(C#N)c5ncccc45)C[C@@H](C)O3)C2)cc(CO)n1 (some centres unmarked) [Example 6] | > 20 µM | 5.83 µM | 132.4 | 109.9 | 142.1 |
| Cc1cc(NC2CN(C[C@H]3CN(c4ccc(C#N)c5ncccc45)C[C@@H](C)O3)C2)cc(C)n1 [Example 7] | > 20 µM | > 10 µM | >384.6 | >322.6 | >256.4 |
| Cc1cc(N2CC(NC[C@H]3CN(c4ccc(C#N)c5ncccc45)C[C@@H](C)O3)C2)cc(CO)n1 [Example 30] | > 10 µM | 4.51 µM | 69.4 | 322.0 | 51.2 |
| C[C@@H]1CN(c2ccc(C#N)c3ncccc23)C[C@H](CN2CCN(c3cc(N)nc(CO)c3)CC2)O1 [Example 45, 5-[(2S,6R)-2-[[4-[2-amino-6-(hydroxymethyl)-4-pyridyl]piperazin-1-yl]methyl]-6-methyl-morpholin-4-yl]quinoline-8-carbonitrile] | > 20 µM | > 10 µM | >256.4 | >714.3 | >109.9 |
| CC(O)c1cc(N2CC3(CN(C[C@H]4CN(c5ccc(C#N)c6ncccc56)C[C@@H](C)O4)C3)C2)ccn1 (stereo partly drawn) [Example 46, 5-[(2S,6R)-2-[[2-[2-(1-hydroxyethyl)-4-pyridyl]-2,6-diazaspiro[3.3]heptan-6-yl]methyl]-6-methyl-morpholin-4-yl]quinoline-8-carbonitrile] | > 10 µM | 4.69 µM | 146.6 | 52.1 | 146.6 |
